Data published in BindingDB's records for doi:10.1021/np070259w (Institute of Plant Biochemistry, 2007).
Structures can show the parent of a compound that is named as a salt.

Test: Inhibition of equine BChE at 100 uM by Ellman's method

CNC(=O)Oc1ccc2c(c1)[C@]1(C)CCN(C)[C@@H]1N2C [(3aS,8aR)-1,3a,8-trimethyl-1,2,3,3a,8,8a-hexahydropyrrolo[2,3-b]indol-5-yl methylcarbamate hydrochloride]
IC50: 3.5 µM
